Assay results from PubChem BioAssay AID330 (DTP/NCI, 2004).
“And” between values parts separate entries of the source, which are not always exact repeats. Equal values may be shown once. Toxic doses and inconclusive results are not listed. How the source made its calls: active means survival T/C of 150% or more; inactive means T/C below 125% in these data.

Tested on: P388 leukemia ip, CD2F1 mice, survival T/C
Assay: NCI In Vivo Anticancer Drug Screen. Data for tumor model P388 Leukemia (intraperitoneal) in CD2F1 (CDF1) mice
Details: endpoint: median survival time, higher = longer survival
Method in brief: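 Mice carrying the transplanted tumor received test compound or vehicle. Survival was recorded in each group, and the value is the treated-group measurement divided by that of the vehicle-treated control group.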

[1] = dose: 50.0 mg/kg/injection, schedule: Q01DX009 (ip), vehicle: saline with Tween-80
[2] = dose: 200.0 mg/kg/injection, schedule: Q01DX009 (ip), vehicle: saline with Tween-80
[3] = dose: 100.0 mg/kg/injection, schedule: Q01DX009 (ip), vehicle: saline with Tween-80
[4] = dose: 60.0 mg/kg/injection, schedule: Q01DX005 (ip), vehicle: saline with Tween-80
[5] = dose: 120.0 mg/kg/injection, schedule: Q01DX005 (ip), vehicle: saline with Tween-80
[6] = dose: 240.0 mg/kg/injection, schedule: Q01DX005 (ip), vehicle: saline with Tween-80
[7] = dose: 12.5 mg/kg/injection, schedule: Q01DX009 (ip), vehicle: distilled water + Tween-80
[8] = dose: 25.0 mg/kg/injection, schedule: Q01DX009 (ip), vehicle: distilled water + Tween-80
[9] = dose: 100.0 mg/kg/injection, schedule: Q01DX009 (ip), vehicle: distilled water + Tween-80
[10] = dose: 200.0 mg/kg/injection, schedule: Q01DX009 (ip), vehicle: distilled water + Tween-80
[11] = dose: 50.0 mg/kg/injection, schedule: Q01DX005 (ip), vehicle: Klucel (hydroxypropylcellulose) (HPC)
[12] = dose: 100.0 mg/kg/injection, schedule: Q01DX005 (ip), vehicle: Klucel (hydroxypropylcellulose) (HPC)
[13] = dose: 200.0 mg/kg/injection, schedule: Q01DX005 (ip), vehicle: Klucel (hydroxypropylcellulose) (HPC)
[14] = dose: 25.0 mg/kg/injection, schedule: Q01DX009 (ip), vehicle: saline with Tween-80
[15] = dose: 50.0 mg/kg/injection, schedule: Q01DX009 (ip), vehicle: saline
[16] = dose: 100.0 mg/kg/injection, schedule: Q01DX009 (ip), vehicle: saline
[17] = dose: 50.0 mg/kg/injection, schedule: Q01DX009 (ip), vehicle: Klucel (hydroxypropylcellulose) (HPC)
[18] = dose: 100.0 mg/kg/injection, schedule: Q01DX009 (ip), vehicle: Klucel (hydroxypropylcellulose) (HPC)
[19] = dose: 200.0 mg/kg/injection, schedule: Q01DX009 (ip), vehicle: Klucel (hydroxypropylcellulose) (HPC)
[20] = dose: 50.0 mg/kg/injection, schedule: Q01DX005 (ip), vehicle: saline with Tween-80
[21] = dose: 100.0 mg/kg/injection, schedule: Q01DX005 (ip), vehicle: saline with Tween-80
[22] = dose: 200.0 mg/kg/injection, schedule: Q01DX005 (ip), vehicle: saline with Tween-80

Measured: T/C

CC(Nc1ccc(Br)cc1[N+](=O)[O-])C(=O)O (stereo not drawn)
inactive: [1] 110 % of control | [2] 100 % of control

Clc1ccc2c(nnn2OC2CCCC2)c1Cl
inactive: [1] 88 % of control | [3] 94 % of control | [2] 94 % of control

O=C1Sc2ccccc2C(=O)N2CCCC12 (stereo not drawn)
inactive: [4] 97 % of control | [5] 99 % of control | [6] 100 % of control

CNC(=O)OCc1c(-c2ccccc2)c(-c2ccccc2)n(-c2ccccc2)c1COC(=O)NC
active: [9] 155 % of control | [10] 171 % of control and 175 % of control
inactive: [7] 110 % of control | [8] 112 % of control and 117 % of control

CC1C(=O)CC2CCC1N2C(=O)O (stereo not drawn)
inactive: dose: 50.0 mg/kg/injection, schedule: Q01DX005 (ip), vehicle: saline 96 % of control | dose: 100.0 mg/kg/injection, schedule: Q01DX005 (ip), vehicle: saline 96 % of control | dose: 200.0 mg/kg/injection, schedule: Q01DX005 (ip), vehicle: saline 94 % of control

Cc1ccc(S(=O)C2=CCCO2)cc1 (stereo not drawn)
inactive: dose: 12.5 mg/kg/injection, schedule: Q01DX005 (ip), vehicle: Klucel (hydroxypropylcellulose) (HPC) 100 % of control | dose: 25.0 mg/kg/injection, schedule: Q01DX005 (ip), vehicle: Klucel (hydroxypropylcellulose) (HPC) 102 % of control | [11] 101 % of control and 108 % of control | [12] 119 % of control | [13] 118 % of control

c1ccc(N(c2ccccc2)c2nnnn2-c2ccccc2)cc1
inactive: [14] 98 % of control | [1] 94 % of control | [3] 89 % of control

Cc1cc(=O)[nH]c(N/N=C/c2ccc(O)cc2)n1
inactive: dose: 18.75 mg/kg/injection, schedule: Q04DX003 (ip), vehicle: saline sonified 90 % of control | dose: 37.5 mg/kg/injection, schedule: Q04DX003 (ip), vehicle: saline sonified 86 % of control | dose: 75.0 mg/kg/injection, schedule: Q04DX003 (ip), vehicle: saline sonified 104 % of control

CCC(C)CN1CCc2c(c3c(c(OC)c2OC)CCC3)C1 (stereo not drawn)
inactive: dose: 50.0 mg/kg/injection, schedule: Q04DX002 (ip), vehicle: saline 101 % of control | dose: 100.0 mg/kg/injection, schedule: Q04DX002 (ip), vehicle: saline 102 % of control | dose: 200.0 mg/kg/injection, schedule: Q04DX002 (ip), vehicle: saline 96 % of control

C1CCC(C2CCCC[N-]2)[N-]C1.C1CCC(C2CCCC[N-]2)[N-]C1.[Cl][Co][Cl] (stereo not drawn)
inactive: [15] 100 % of control | [16] 109 % of control

CCOC(=O)/C(=C/Nc1ccc(O)cc1)NC(=O)c1ccccc1
inactive: [17] 103 % of control and 104 % of control | [18] 94 % of control and 97 % of control | [19] 118 % of control and 87 % of control | dose: 400.0 mg/kg/injection, schedule: Q01DX009 (ip), vehicle: Klucel (hydroxypropylcellulose) (HPC) 89 % of control

S=C1NCCNC(=S)SSSS1
inactive: [20] 107 % of control | [21] 114 % of control | [22] 113 % of control

CC(=O)OCC12C3CC(=O)OC1C(OC(=O)C=C(C)C)C1C(C)=CC(=O)C(OC(C)=O)C1(C)C2C(=O)C(OC(C)=O)C3C (stereo not drawn)
inactive: dose: 0.5 mg/kg/injection, schedule: Q01DX009 (ip), vehicle: distilled water + Tween-80 100 % of control | dose: 1.0 mg/kg/injection, schedule: Q01DX009 (ip), vehicle: distilled water + Tween-80 97 % of control | dose: 2.0 mg/kg/injection, schedule: Q01DX009 (ip), vehicle: distilled water + Tween-80 102 % of control | dose: 4.0 mg/kg/injection, schedule: Q01DX009 (ip), vehicle: distilled water + Tween-80 101 % of control | dose: 8.0 mg/kg/injection, schedule: Q01DX009 (ip), vehicle: distilled water + Tween-80 102 % of control

Nc1cccc(C(=O)O)c1O
inactive: [15] 100 % of control | [16] 106 % of control | dose: 200.0 mg/kg/injection, schedule: Q01DX009 (ip), vehicle: saline 104 % of control

COc1cccc(/C=C/C(C)=N/NC(N)=S)c1
inactive: dose: 6.25 mg/kg/injection, schedule: Q01DX005 (ip), vehicle: saline with Tween-80 107 % of control | dose: 12.5 mg/kg/injection, schedule: Q01DX005 (ip), vehicle: saline with Tween-80 107 % of control | dose: 25.0 mg/kg/injection, schedule: Q01DX005 (ip), vehicle: saline with Tween-80 111 % of control | [20] 118 % of control | [21] 101 % of control

CCCCCCCCCCCCCCCCS.[Ge]
inactive: dose: 12.5 mg/kg/injection, schedule: Q01DX009 (ip), vehicle: saline with Tween-80 106 % of control | [14] 98 % of control | [1] 104 % of control

C=CCCC(C)CC (stereo not drawn)
inactive: [1] 105 % of control | [3] 103 % of control | [2] 100 % of control

CN(C)CCC(=O)c1ccc(Cl)cc1Cl
inactive: [15] 110 % of control | [16] 100 % of control

Oc1ccc2ccccc2c1/C=N/NC(=S)N/N=C/c1c(O)ccc2ccccc12
inactive: dose: 0.38 mg/kg/injection, schedule: Q01DX005 (ip), vehicle: saline with Tween-80 97 % of control | dose: 0.75 mg/kg/injection, schedule: Q01DX005 (ip), vehicle: saline with Tween-80 97 % of control | dose: 1.5 mg/kg/injection, schedule: Q01DX005 (ip), vehicle: saline with Tween-80 90 % of control and 92 % of control | dose: 6.0 mg/kg/injection, schedule: Q01DX005 (ip), vehicle: saline with Tween-80 86 % of control | [21] 96 % of control | [22] 116 % of control

O=NN(C(=O)NC1CCC(O)CC1)C1CCC(O)CC1 (stereo not drawn)
inactive: dose: 25.0 mg/kg/injection, schedule: Q01DX001 (ip), vehicle: distilled water + Tween-80 102 % of control | dose: 50.0 mg/kg/injection, schedule: Q01DX001 (ip), vehicle: distilled water + Tween-80 99 % of control | dose: 100.0 mg/kg/injection, schedule: Q01DX001 (ip), vehicle: distilled water + Tween-80 106 % of control | dose: 200.0 mg/kg/injection, schedule: Q01DX001 (ip), vehicle: distilled water + Tween-80 101 % of control

CCc1ccc([O-])c(C=NCCCN(C)CCCN=Cc2cc(C)ccc2[O-])c1.[Co+3].[N-]=[N+]=[N-]
inactive: [4] 88 % of control | [5] 91 % of control | [6] 101 % of control

O=C(CN(OC(=O)c1ccccc1)C(=O)c1ccccc1)OCc1ccccc1
inactive: [7] 92 % of control | [8] 99 % of control | dose: 50.0 mg/kg/injection, schedule: Q01DX009 (ip), vehicle: distilled water + Tween-80 99 % of control | [9] 100 % of control | [10] 101 % of control

CN(C)c1ccc(C(=N)Cc2ccc3ccccc3n2)cc1
inactive: dose: 37.5 mg/kg/injection, schedule: Q01DX009 (ip), vehicle: Klucel (hydroxypropylcellulose) (HPC) 106 % of control | [17] 92 % of control | dose: 75.0 mg/kg/injection, schedule: Q01DX009 (ip), vehicle: Klucel (hydroxypropylcellulose) (HPC) 98 % of control | [18] 95 % of control | dose: 150.0 mg/kg/injection, schedule: Q01DX009 (ip), vehicle: Klucel (hydroxypropylcellulose) (HPC) 109 % of control | [19] 100 % of control

COc1ccccc1C1=[N+]([O-])C(C)(C)C(c2ccccc2)C1 (stereo not drawn)
inactive: dose: 100.0 mg/kg/injection, schedule: Q04DX002 (ip), vehicle: Klucel (hydroxypropylcellulose) (HPC) 104 % of control | dose: 200.0 mg/kg/injection, schedule: Q04DX002 (ip), vehicle: Klucel (hydroxypropylcellulose) (HPC) 102 % of control

CCOC(=O)c1cn(C)c(=O)c(Br)c1C#N
inactive: [20] 92 % of control | [21] 96 % of control | [22] 93 % of control

Cc1ccc(N=C(c2ccccc2)N(O)c2ccc(Cl)cc2)cc1Cl
inactive: [11] 100 % of control | [12] 97 % of control | [13] 94 % of control

Cn1c(=O)c2c(nc(CF)n2C)n(C)c1=O
inactive: dose: 100.0 mg/kg/injection, schedule: Q01DX001 (ip), vehicle: saline 92 % of control | dose: 200.0 mg/kg/injection, schedule: Q01DX001 (ip), vehicle: saline 96 % of control
